In article PMC4620497 (Scientific Reports, 2015):

How the values were obtained:
FLT3 = conditions: previously identified FLT3 inhibitor; read-out: IC50 against FLT3; cited from earlier work
PAK2 = molecular target: T1, PAK2 (Homo sapiens, UniProt Q13177); design: method as in earlier work; conditions: Table S1; cited from earlier work
T1 construct: purchased DiscoveRx KINOMEscan (Ambit Biosciences)

[1] = molecular target: T2, ABL1(F317I)-phosphorylated (Homo sapiens, UniProt P00519, F317I); assay: KINOMEscan panel screen; assay type: binding; conditions: read-out: Percent Control(%)
T2 construct: purchased DiscoveRx KINOMEscan (Ambit Biosciences)

CDK4-cyclinD3 = molecular target: T3, CDK4-cyclinD3 (Homo sapiens, UniProt P11802); assay: KINOMEscan panel screen; assay type: binding; conditions: read-out: Percent Control(%)
T3 construct: purchased DiscoveRx KINOMEscan (Ambit Biosciences)

OSR1 = molecular target: T4, OSR1 (Homo sapiens, UniProt O95747); assay: KINOMEscan panel screen; assay type: binding; conditions: read-out: Percent Control(%)
T4 construct: purchased DiscoveRx KINOMEscan (Ambit Biosciences)

PLK2 = molecular target: T5, PLK2 (Homo sapiens, UniProt Q9NYY3); assay: KINOMEscan panel screen; assay type: binding; conditions: read-out: Percent Control(%)
T5 construct: purchased DiscoveRx KINOMEscan (Ambit Biosciences)

PFPK5(P.falciparum) = molecular target: T6, PFPK5(P.falciparum) (Plasmodium falciparum, UniProt P61075); assay: KINOMEscan panel screen; assay type: binding; conditions: read-out: Percent Control(%)
T6 construct: purchased DiscoveRx KINOMEscan (Ambit Biosciences)

VRK2 = molecular target: T7, VRK2 (Homo sapiens, UniProt Q86Y07); assay: KINOMEscan panel screen; assay type: binding; conditions: read-out: Percent Control(%)
T7 construct: purchased DiscoveRx KINOMEscan (Ambit Biosciences)

CAMK4 = molecular target: T8, CAMK4 (Homo sapiens, UniProt Q16566); assay: KINOMEscan panel screen; assay type: binding; conditions: read-out: Percent Control(%)
T8 construct: purchased DiscoveRx KINOMEscan (Ambit Biosciences)
T8 sequence (Q16566 1-473): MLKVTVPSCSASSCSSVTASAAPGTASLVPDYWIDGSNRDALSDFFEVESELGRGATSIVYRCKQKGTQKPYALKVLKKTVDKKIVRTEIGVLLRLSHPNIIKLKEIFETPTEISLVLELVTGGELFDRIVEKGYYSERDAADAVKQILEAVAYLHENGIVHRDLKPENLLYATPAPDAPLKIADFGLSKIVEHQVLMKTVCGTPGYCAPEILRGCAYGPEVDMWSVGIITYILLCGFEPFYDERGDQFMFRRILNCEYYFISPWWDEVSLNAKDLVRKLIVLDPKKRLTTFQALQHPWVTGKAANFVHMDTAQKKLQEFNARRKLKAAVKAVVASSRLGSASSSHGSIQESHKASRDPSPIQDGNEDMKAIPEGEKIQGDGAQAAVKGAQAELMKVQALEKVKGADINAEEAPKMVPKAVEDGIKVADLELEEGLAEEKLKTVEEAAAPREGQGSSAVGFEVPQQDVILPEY

PKN2 = molecular target: T9, PKN2 (Homo sapiens, UniProt Q16513); assay: KINOMEscan panel screen; assay type: binding; conditions: read-out: Percent Control(%)
T9 construct: purchased DiscoveRx KINOMEscan (Ambit Biosciences)

FES = molecular target: T10, FES (Homo sapiens, UniProt P07332); assay: KINOMEscan panel screen; assay type: binding; conditions: read-out: Percent Control(%)
T10 construct: purchased DiscoveRx KINOMEscan (Ambit Biosciences)

MYO3B = molecular target: T11, MYO3B (Homo sapiens, UniProt Q8WXR4); assay: KINOMEscan panel screen; assay type: binding; conditions: read-out: Percent Control(%)
T11 construct: purchased DiscoveRx KINOMEscan (Ambit Biosciences)

FGFR3(G697C) = molecular target: T12, FGFR3(G697C) (Homo sapiens, UniProt P22607, G697C); assay: KINOMEscan panel screen; assay type: binding; conditions: read-out: Percent Control(%)
T12 construct: purchased DiscoveRx KINOMEscan (Ambit Biosciences)

CDC2L1 = molecular target: T13, CDC2L1 (Homo sapiens, UniProt P21127); assay: KINOMEscan panel screen; assay type: binding; conditions: read-out: Percent Control(%)
T13 construct: purchased DiscoveRx KINOMEscan (Ambit Biosciences)

BRAF(V600E) = molecular target: T14, BRAF(V600E) (Homo sapiens, UniProt P15056, V600E); assay: KINOMEscan panel screen; assay type: binding; conditions: read-out: Percent Control(%)
T14 construct: purchased DiscoveRx KINOMEscan (Ambit Biosciences)

ACVRL1 = molecular target: T15, ACVRL1 (Homo sapiens, UniProt P37023); assay: KINOMEscan panel screen; assay type: binding; conditions: read-out: Percent Control(%)
T15 construct: purchased DiscoveRx KINOMEscan (Ambit Biosciences)

FGFR2 = molecular target: T16, FGFR2 (Homo sapiens, UniProt P21802); assay: KINOMEscan panel screen; assay type: binding; conditions: read-out: Percent Control(%)
T16 construct: purchased DiscoveRx KINOMEscan (Ambit Biosciences)

FGFR1 = molecular target: T17, FGFR1 (Homo sapiens, UniProt P11362); assay: KINOMEscan panel screen; assay type: binding; conditions: read-out: Percent Control(%)
T17 construct: purchased DiscoveRx KINOMEscan (Ambit Biosciences)

TGFBR1 = molecular target: T18, TGFBR1 (Homo sapiens, UniProt P36897); assay: KINOMEscan panel screen; assay type: binding; conditions: read-out: Percent Control(%)
T18 construct: DNA tag (qPCR read-out); purchased Ambit Biosciences (KINOMEscan service)

CDK9 = molecular target: T19, CDK9 (Homo sapiens, UniProt P50750); assay: KINOMEscan panel screen; assay type: binding; conditions: read-out: Percent Control(%)
T19 construct: purchased DiscoveRx KINOMEscan (Ambit Biosciences)

KIT(V559D) = molecular target: T20, KIT(V559D) (Homo sapiens, UniProt P10721, V559D); assay: KINOMEscan panel screen; assay type: binding; conditions: read-out: Percent Control(%)
T20 construct: purchased DiscoveRx KINOMEscan (Ambit Biosciences)

INSRR = molecular target: T21, INSRR (Homo sapiens, UniProt P14616); assay: KINOMEscan panel screen; assay type: binding; conditions: read-out: Percent Control(%)
T21 construct: purchased DiscoveRx KINOMEscan (Ambit Biosciences)

[2] = tested on: MYC, CCND1, NKD1 transcripts in STF3a cells; assay: Real-time qPCR of β-catenin target genes in STF3a cells; assay type: cell-based; conditions: 24 h
PDGFRβ = molecular target: T22, PDGFRβ (Homo sapiens, UniProt P09619); assay: KINOMEscan kinase binding assay (Kd)
T22 construct: purchased Ambit Biosciences (KINOMEscan)

EPHA2 = molecular target: T23, EPHA2 (Homo sapiens, UniProt P29317); assay: KINOMEscan panel screen; assay type: binding; conditions: read-out: Percent Control(%)
T23 construct: purchased DiscoveRx KINOMEscan (Ambit Biosciences)

PANC-1 = assay: MTT cell viability assay; conditions: Homo sapiens, PANC-1, 72 h
EPHA7 = molecular target: T24, EPHA7 (Homo sapiens, UniProt Q15375); assay: KINOMEscan panel screen; assay type: binding; conditions: read-out: Percent Control(%)
T24 construct: purchased DiscoveRx KINOMEscan (Ambit Biosciences)

MARK2 = molecular target: T25, MARK2 (Homo sapiens, UniProt Q7KZI7); assay: KINOMEscan panel screen; assay type: binding; conditions: read-out: Percent Control(%)
T25 construct: purchased DiscoveRx KINOMEscan (Ambit Biosciences)

[3] = tested on: phosphorylation of FLT3, STAT5 and Erk1/2 in MV4-11 cells; assay: Western blot of FLT3 signaling in MV4-11 cells; assay type: cell-based, human; conditions: 1 h treatment
Protocol: Western blot analysis was performed as previously described[43]. […] Quantitative analysis of the protein level was performed with NIH image analysis software, ImageJ (normalized relative to the vehicle control).
The phosphorylation levels of FLT3 and downstream signal proteins were detected used the same method as that in panel a.

HIPK4 = molecular target: T26, HIPK4 (Homo sapiens, UniProt Q8NE63); assay: KINOMEscan panel screen; assay type: binding; conditions: read-out: Percent Control(%)
T26 construct: purchased DiscoveRx KINOMEscan (Ambit Biosciences)

MAP3K1 = molecular target: T27, MAP3K1 (Homo sapiens, UniProt Q13233); assay: KINOMEscan panel screen; assay type: binding; conditions: read-out: Percent Control(%)
T27 construct: purchased DiscoveRx KINOMEscan (Ambit Biosciences)

RIPK2 = molecular target: T28, RIPK2 (Homo sapiens, UniProt O43353); assay: KINOMEscan panel screen; assay type: binding; conditions: read-out: Percent Control(%)
T28 construct: purchased DiscoveRx KINOMEscan (Ambit Biosciences)

SNARK = molecular target: T29, SNARK (Homo sapiens, UniProt Q9H093); assay: KINOMEscan panel screen; assay type: binding; conditions: read-out: Percent Control(%)
T29 construct: purchased DiscoveRx KINOMEscan (Ambit Biosciences)

TRKA = molecular target: T30, TRKA (Homo sapiens, UniProt P04629); assay: KINOMEscan panel screen; assay type: binding; conditions: read-out: Percent Control(%)
T30 construct: purchased DiscoveRx KINOMEscan (Ambit Biosciences)

YSK4 = molecular target: T31, YSK4 (Homo sapiens, UniProt Q56UN5); assay: KINOMEscan panel screen; assay type: binding; conditions: read-out: Percent Control(%)
T31 construct: purchased DiscoveRx KINOMEscan (Ambit Biosciences)

NEK6 = molecular target: T32, NEK6 (Homo sapiens, UniProt Q9HC98); assay: KINOMEscan panel screen; assay type: binding; conditions: read-out: Percent Control(%)
T32 construct: purchased DiscoveRx KINOMEscan (Ambit Biosciences)
T32 sequence (Q9HC98 whole entry): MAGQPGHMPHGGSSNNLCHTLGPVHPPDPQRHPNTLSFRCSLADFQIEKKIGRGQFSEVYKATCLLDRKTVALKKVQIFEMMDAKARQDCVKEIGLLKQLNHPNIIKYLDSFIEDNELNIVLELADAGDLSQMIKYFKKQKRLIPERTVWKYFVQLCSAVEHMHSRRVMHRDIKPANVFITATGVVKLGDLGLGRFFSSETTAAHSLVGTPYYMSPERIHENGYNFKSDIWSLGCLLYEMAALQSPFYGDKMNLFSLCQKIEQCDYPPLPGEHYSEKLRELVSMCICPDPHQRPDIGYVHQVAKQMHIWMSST

T14 sequence (P15056 whole entry V600E): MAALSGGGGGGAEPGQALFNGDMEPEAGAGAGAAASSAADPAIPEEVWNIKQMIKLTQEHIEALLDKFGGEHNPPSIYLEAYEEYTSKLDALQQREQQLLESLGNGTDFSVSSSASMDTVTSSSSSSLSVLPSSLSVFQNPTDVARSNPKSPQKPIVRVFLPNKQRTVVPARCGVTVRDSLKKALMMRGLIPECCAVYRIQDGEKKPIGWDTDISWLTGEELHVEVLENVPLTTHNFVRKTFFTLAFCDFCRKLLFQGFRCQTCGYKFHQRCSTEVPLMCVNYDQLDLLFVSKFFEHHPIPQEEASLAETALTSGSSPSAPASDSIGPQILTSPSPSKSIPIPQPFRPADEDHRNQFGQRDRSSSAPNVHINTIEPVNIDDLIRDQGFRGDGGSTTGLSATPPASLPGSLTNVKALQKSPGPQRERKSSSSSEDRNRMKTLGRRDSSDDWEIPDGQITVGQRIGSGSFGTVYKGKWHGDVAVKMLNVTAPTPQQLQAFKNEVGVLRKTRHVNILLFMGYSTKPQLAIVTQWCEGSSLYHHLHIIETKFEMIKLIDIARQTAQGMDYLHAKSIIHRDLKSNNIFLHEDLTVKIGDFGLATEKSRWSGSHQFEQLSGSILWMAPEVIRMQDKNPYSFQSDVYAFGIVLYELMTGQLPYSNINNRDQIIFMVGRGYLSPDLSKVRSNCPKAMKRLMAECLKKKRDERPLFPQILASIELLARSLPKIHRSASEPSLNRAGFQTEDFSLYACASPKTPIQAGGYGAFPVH
T2 sequence (P00519 229-512 F317I limits assumed): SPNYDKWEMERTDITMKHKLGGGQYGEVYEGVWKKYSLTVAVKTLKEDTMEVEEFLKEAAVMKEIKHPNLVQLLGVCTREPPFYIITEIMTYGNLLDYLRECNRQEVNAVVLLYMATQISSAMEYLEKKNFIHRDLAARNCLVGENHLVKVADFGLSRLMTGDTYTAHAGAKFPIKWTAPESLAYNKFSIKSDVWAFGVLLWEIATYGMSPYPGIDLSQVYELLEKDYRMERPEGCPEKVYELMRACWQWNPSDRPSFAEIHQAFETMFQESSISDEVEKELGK
T21 sequence (P14616 27-1297): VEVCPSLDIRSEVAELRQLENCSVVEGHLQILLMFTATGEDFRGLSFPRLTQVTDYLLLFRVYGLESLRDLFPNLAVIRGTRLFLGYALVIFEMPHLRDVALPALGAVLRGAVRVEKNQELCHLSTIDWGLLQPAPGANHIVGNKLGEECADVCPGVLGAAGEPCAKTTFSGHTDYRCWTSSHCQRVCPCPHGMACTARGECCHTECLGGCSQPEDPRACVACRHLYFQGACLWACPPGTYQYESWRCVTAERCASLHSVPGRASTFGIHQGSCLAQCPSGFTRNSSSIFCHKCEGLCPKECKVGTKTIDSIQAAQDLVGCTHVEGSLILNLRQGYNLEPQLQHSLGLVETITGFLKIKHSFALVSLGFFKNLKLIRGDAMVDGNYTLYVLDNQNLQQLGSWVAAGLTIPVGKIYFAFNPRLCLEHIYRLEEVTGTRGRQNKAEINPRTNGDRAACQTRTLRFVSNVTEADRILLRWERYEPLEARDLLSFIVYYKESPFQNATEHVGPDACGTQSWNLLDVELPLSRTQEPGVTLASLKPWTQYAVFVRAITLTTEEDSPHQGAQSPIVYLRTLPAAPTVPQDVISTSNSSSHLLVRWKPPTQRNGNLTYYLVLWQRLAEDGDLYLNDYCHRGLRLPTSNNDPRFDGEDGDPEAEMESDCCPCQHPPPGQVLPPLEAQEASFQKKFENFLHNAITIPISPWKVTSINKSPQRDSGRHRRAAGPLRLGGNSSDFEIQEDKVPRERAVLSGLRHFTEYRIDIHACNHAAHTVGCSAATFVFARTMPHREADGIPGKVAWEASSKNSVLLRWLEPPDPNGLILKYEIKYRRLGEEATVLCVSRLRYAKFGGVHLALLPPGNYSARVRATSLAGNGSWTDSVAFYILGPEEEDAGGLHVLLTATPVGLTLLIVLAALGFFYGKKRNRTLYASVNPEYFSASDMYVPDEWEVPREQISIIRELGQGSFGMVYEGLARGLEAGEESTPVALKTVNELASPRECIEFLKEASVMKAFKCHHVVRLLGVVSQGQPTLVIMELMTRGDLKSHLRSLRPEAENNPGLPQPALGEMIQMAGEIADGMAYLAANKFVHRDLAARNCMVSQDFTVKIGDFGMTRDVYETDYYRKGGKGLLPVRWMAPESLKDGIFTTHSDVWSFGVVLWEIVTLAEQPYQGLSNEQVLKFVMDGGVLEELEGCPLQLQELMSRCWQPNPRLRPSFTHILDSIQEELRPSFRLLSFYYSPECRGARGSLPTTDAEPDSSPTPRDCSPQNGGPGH
T4 sequence (O95747 whole entry): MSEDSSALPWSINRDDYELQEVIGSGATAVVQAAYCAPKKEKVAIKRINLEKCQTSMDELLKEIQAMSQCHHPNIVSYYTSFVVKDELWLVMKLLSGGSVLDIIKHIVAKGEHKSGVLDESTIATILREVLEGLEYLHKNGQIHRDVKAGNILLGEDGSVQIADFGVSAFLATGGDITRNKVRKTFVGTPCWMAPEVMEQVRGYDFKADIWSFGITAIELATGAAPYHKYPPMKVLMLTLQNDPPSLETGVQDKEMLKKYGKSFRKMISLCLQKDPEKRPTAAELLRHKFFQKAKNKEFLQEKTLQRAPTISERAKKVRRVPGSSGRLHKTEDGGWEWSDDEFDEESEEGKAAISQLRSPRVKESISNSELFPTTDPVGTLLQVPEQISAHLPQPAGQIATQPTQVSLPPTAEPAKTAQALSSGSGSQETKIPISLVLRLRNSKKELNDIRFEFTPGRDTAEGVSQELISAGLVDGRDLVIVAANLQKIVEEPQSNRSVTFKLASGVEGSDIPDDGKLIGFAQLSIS
T16 sequence (P21802 22-821): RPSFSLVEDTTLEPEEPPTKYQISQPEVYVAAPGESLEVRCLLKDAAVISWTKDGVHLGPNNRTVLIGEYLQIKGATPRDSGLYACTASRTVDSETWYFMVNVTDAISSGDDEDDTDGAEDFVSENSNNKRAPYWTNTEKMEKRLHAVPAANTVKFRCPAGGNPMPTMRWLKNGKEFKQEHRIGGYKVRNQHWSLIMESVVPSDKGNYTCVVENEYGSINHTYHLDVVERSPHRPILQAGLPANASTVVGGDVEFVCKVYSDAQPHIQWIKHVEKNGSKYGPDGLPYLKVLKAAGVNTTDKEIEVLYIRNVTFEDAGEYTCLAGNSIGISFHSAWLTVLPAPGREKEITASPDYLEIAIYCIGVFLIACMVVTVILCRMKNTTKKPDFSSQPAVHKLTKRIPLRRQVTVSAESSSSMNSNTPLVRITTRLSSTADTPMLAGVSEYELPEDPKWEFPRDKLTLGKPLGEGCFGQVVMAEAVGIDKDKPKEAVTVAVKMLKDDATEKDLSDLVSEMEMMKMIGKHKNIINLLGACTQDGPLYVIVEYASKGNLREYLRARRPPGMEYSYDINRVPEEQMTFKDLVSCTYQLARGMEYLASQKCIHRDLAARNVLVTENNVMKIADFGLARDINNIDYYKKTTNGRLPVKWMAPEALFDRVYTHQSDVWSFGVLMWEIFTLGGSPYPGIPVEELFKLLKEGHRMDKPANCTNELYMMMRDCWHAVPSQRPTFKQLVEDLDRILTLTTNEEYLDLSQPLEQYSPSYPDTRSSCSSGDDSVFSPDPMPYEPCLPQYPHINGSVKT
T24 sequence (Q15375 28-998): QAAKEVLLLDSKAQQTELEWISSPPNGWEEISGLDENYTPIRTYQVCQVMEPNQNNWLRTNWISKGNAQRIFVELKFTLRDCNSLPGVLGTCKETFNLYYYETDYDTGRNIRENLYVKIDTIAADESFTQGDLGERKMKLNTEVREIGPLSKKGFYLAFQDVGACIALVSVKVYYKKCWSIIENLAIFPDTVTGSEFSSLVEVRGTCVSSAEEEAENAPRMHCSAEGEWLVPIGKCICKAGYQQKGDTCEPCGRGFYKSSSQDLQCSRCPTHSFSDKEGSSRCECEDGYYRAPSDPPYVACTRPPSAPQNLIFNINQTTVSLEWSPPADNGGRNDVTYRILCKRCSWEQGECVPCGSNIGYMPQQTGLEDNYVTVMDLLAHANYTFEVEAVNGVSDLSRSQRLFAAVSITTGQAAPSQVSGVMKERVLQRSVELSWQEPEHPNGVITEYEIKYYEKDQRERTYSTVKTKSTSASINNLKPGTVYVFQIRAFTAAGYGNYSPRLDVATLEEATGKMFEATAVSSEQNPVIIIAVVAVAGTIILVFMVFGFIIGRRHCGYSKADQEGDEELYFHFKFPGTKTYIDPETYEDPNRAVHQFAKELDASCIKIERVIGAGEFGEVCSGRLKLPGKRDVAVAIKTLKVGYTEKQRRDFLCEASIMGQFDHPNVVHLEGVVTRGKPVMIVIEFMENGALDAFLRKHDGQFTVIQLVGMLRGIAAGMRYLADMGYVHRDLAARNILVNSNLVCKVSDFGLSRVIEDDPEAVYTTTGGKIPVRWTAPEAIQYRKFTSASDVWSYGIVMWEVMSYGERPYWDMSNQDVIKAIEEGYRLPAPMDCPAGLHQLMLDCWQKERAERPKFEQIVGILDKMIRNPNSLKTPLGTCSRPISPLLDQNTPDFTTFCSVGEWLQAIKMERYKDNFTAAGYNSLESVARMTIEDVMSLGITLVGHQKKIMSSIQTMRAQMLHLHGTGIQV

For O=C(Nc1ccc(Oc2ncnc3[nH]ncc23)cc1)Nc1ccc(Cl)c(C(F)(F)F)c1 [Compound 1, 1-(4-(1H-pyrazolo[3,4-d]pyrimidin-4-yloxy)phenyl)-3-(4-chloro-3-(trifluoromethyl)phenyl)urea], the IC50 (FLT3) is given as 39 nM and the IC50 (PAK2) is given as over 10000 nM.
In the case of CC(C)(C)c1cc(NC(=O)Nc2ccc(Oc3ncnc4[nH]ncc34)c(F)c2)no1 [SKLB-677, 1-(4-(1H-pyrazolo[3,4-d]pyrimidin-4-yloxy)-3-fluorophenyl)-3-(5-tert-butylisoxazol-3-yl)urea], the remaining binding at 10 µM [1] is reported as 43%, the remaining binding at 10 µM (CDK4-cyclinD3) is reported as 4.8% and the remaining binding at 10 µM (OSR1) is reported as 36%. For the same molecule, the remaining binding at 10 µM (PLK2) was 100%, the remaining binding at 10 µM (PFPK5(P.falciparum)) was 100% and the remaining binding at 10 µM (VRK2) was 100%. It also gave a remaining binding at 10 µM (CAMK4) of 85%, a remaining binding at 10 µM (PKN2) of 100% and a remaining binding at 10 µM (FES) of 7.2%. It also gave a remaining binding at 10 µM (MYO3B) of 17%, a remaining binding at 10 µM (FGFR3(G697C)) of 22% and a remaining binding at 10 µM (CDC2L1) of 66%. For the same molecule, the remaining binding at 10 µM (BRAF(V600E)) was 0.05%, the remaining binding at 10 µM (ACVRL1) was 91% and the remaining binding at 10 µM (FGFR2) was 2%. For the same molecule, the remaining binding at 10 µM (FGFR1) was 1.4%, the remaining binding at 10 µM (TGFBR1) was 100% and the remaining binding at 10 µM (CDK9) was 5.6%. For the same molecule, the remaining binding at 10 µM (KIT(V559D)) was 0%, the remaining binding at 10 µM (INSRR) was 42% and the “MYC, CCND1, and NKD1 transcripts” value [2] was “reduced”. The Kd (PDGFRβ) was 2.7 nM, the remaining binding at 10 µM (EPHA2) was 1.2% and the IC50 (PANC-1) was over 10000 nM. The remaining binding at 10 µM (EPHA7) was 0%, the remaining binding at 10 µM (MARK2) was 98% and the “concentration at which activation of STAT5 and Erk1/2 was efficiently inhibited” value [3] was “higher than 1 nM”. It also gave an IC50 ([3]; Homo sapiens, read-out: IC50, reduction in the phosphorylation level of FLT3) of about 0.1 nM, a remaining binding at 10 µM (HIPK4) of 0.45% and a remaining binding at 10 µM (MAP3K1) of 36%. For the same molecule, the remaining binding at 10 µM (RIPK2) was 0.75%, the remaining binding at 10 µM (SNARK) was 66% and the remaining binding at 10 µM (TRKA) was 7.8%. For the same molecule, the remaining binding at 10 µM (YSK4) was 0.15% and the remaining binding at 10 µM (NEK6) was 99%.
